# Read-outs that look alike come from different tables or passages of the source.
# System: HIV
# Details: CEM cells
# Protocol: This example describes one method of inactivation of the purified virus according to the invention by crosslinking of surface proteins. […] Titrations of the fixative were preformed above and below the concentration recommended by the CDC for inactivation of virus in biological fluids (May 8, 1992/41 (RR-8); 001 CDC Guidelines for the Performance of CD4+ T-Cell Determinations in Persons with Human Immunodeficiency Virus Infection). Initially, purified virus was slowly thawed at 2-8° C. for 6-8 hours to minimize lysis of the virus. Next, while on ice, virus was diluted with cold PBS to a final concentration of approximately 1×10^10 copies/mL (cp/mL). […] The reaction mixtures were then incubated at 2-8° C. for 60 minutes while gently rocking. […] After the addition of glycine the reactions were gently rocked for 2 hr. at 2-8° C. To remove glycine and any excess unquenched fixative each reaction mixture was then dialyzed (10-14K m.w. cutoff) against 1 L PBS (pH 7.4, 2-8° C.) for 4 changes. Dialyzed virus was then transferred into a 15 mL tube and centrifuged for 10 min. at 3,000×g to pellet any precipitated virus. A sample of each supernatant was then tested in cell culture for the presence of infectious virus.
# The modified virus produced as described in Example 2 was tested to ensure the process inactivated the virus. As an illustration, the CEM cell line, obtained from the American Type Culture Collection was used as a host cell for viral infectivity studies. Advantages of using this line are that establishment of in vitro HIV infection requires relatively few virions and that the infection is chronic rather than lytic, facilitating analysis. For these studies, infection is detected and followed using the ZeptoMetrix HIV p24 Antigen EIA (ZeptoMetrix, Buffalo N.Y.).
# CEM cells are cultured in RPMI-1640 containing 10% FBS in 24 well plates Cells are plated at 10^5 cells per well in a 1 ml volume and 100 ul of various dilutions of virus, either treated or untreated, are added to individual wells. Cultures are fed twice weekly by 50% media replacement and culture supernatants are assayed for HIV p24. All cultures initially contain HIV p24. However, in cultures where virus is noninfectious HIV p24 levels decrease over time eventually reaching background levels.
# Different dilutions (1:8,000, 1:80,000, and 1:800,000) of treated virus were then placed into cultures of CEM cells and p24 assays were performed on culture supernatants on days 3, 7, 10, and 14 post-inoculation. Data are expressed as pg/ml of HIV p24 protein in the culture supernatants. The standard curve for the p24 assay is linear from 7.8 pg/ml to 125 pg/ml. HIV p24 concentrations below 7.8 pg/ml are expressed as “<7.8 pg/ml” to indicate sensitivity of the assay, and values above 125 pg/ml are expressed as “>125 pg/ml” since the assay is nonlinear above 125 pg/ml.
substance,measurement,setting,value
paraformaldehyde,HIV p24 protein in culture supernatants,"0.625% paraformaldehyde 60 min, treated HIV diluted 1:8,000, 3 days post-inoculation",71.8 pg/mL
same,HIV p24 protein in culture supernatants,"0.625% paraformaldehyde 60 min, treated HIV diluted 1:8,000, 7 days post-inoculation",109 pg/mL
same,HIV p24 protein in culture supernatants,"0.625% paraformaldehyde 60 min, treated HIV diluted 1:8,000, 10 days post-inoculation",22.9 pg/mL
same,HIV p24 protein in culture supernatants,"0.625% paraformaldehyde 60 min, treated HIV diluted 1:8,000, 14 days post-inoculation",<7.8 pg/mL
same,HIV p24 protein in culture supernatants,"0.625% paraformaldehyde 60 min, treated HIV diluted 1:80,000, 3 days post-inoculation",<7.8 pg/mL
same,HIV p24 protein in culture supernatants,"0.625% paraformaldehyde 60 min, treated HIV diluted 1:80,000, 7 days post-inoculation",<7.8 pg/mL
same,HIV p24 protein in culture supernatants,"0.625% paraformaldehyde 60 min, treated HIV diluted 1:80,000, 10 days post-inoculation",<7.8 pg/mL
same,HIV p24 protein in culture supernatants,"0.625% paraformaldehyde 60 min, treated HIV diluted 1:80,000, 14 days post-inoculation",<7.8 pg/mL
same,HIV p24 protein in culture supernatants,"0.625% paraformaldehyde 60 min, treated HIV diluted 1:800,000, 3 days post-inoculation",<7.8 pg/mL
same,HIV p24 protein in culture supernatants,"0.625% paraformaldehyde 60 min, treated HIV diluted 1:800,000, 7 days post-inoculation",<7.8 pg/mL
same,HIV p24 protein in culture supernatants,"0.625% paraformaldehyde 60 min, treated HIV diluted 1:800,000, 10 days post-inoculation",<7.8 pg/mL
same,HIV p24 protein in culture supernatants,"0.625% paraformaldehyde 60 min, treated HIV diluted 1:800,000, 14 days post-inoculation",<7.8 pg/mL
same,HIV p24 protein in culture supernatants,"1.25% paraformaldehyde 60 min, treated HIV diluted 1:8,000, 3 days post-inoculation",41.9 pg/mL
same,HIV p24 protein in culture supernatants,"1.25% paraformaldehyde 60 min, treated HIV diluted 1:8,000, 7 days post-inoculation",34.2 pg/mL
same,HIV p24 protein in culture supernatants,"1.25% paraformaldehyde 60 min, treated HIV diluted 1:8,000, 10 days post-inoculation",<7.8 pg/mL
same,HIV p24 protein in culture supernatants,"1.25% paraformaldehyde 60 min, treated HIV diluted 1:8,000, 14 days post-inoculation",<7.8 pg/mL
same,HIV p24 protein in culture supernatants,"1.25% paraformaldehyde 60 min, treated HIV diluted 1:80,000, 3 days post-inoculation",<7.8 pg/mL
same,HIV p24 protein in culture supernatants,"1.25% paraformaldehyde 60 min, treated HIV diluted 1:80,000, 7 days post-inoculation",<7.8 pg/mL
same,HIV p24 protein in culture supernatants,"1.25% paraformaldehyde 60 min, treated HIV diluted 1:80,000, 10 days post-inoculation",<7.8 pg/mL
same,HIV p24 protein in culture supernatants,"1.25% paraformaldehyde 60 min, treated HIV diluted 1:80,000, 14 days post-inoculation",<7.8 pg/mL
same,HIV p24 protein in culture supernatants,"1.25% paraformaldehyde 60 min, treated HIV diluted 1:800,000, 3 days post-inoculation",<7.8 pg/mL
same,HIV p24 protein in culture supernatants,"1.25% paraformaldehyde 60 min, treated HIV diluted 1:800,000, 7 days post-inoculation",<7.8 pg/mL
same,HIV p24 protein in culture supernatants,"1.25% paraformaldehyde 60 min, treated HIV diluted 1:800,000, 10 days post-inoculation",<7.8 pg/mL
same,HIV p24 protein in culture supernatants,"1.25% paraformaldehyde 60 min, treated HIV diluted 1:800,000, 14 days post-inoculation",<7.8 pg/mL
same,HIV p24 protein in culture supernatants,"2.5% paraformaldehyde 60 min, treated HIV diluted 1:8,000, 3 days post-inoculation",<7.8 pg/mL
same,HIV p24 protein in culture supernatants,"2.5% paraformaldehyde 60 min, treated HIV diluted 1:8,000, 7 days post-inoculation",<7.8 pg/mL
same,HIV p24 protein in culture supernatants,"2.5% paraformaldehyde 60 min, treated HIV diluted 1:8,000, 10 days post-inoculation",<7.8 pg/mL
same,HIV p24 protein in culture supernatants,"2.5% paraformaldehyde 60 min, treated HIV diluted 1:8,000, 14 days post-inoculation",<7.8 pg/mL
same,HIV p24 protein in culture supernatants,"2.5% paraformaldehyde 60 min, treated HIV diluted 1:80,000, 3 days post-inoculation",<7.8 pg/mL
same,HIV p24 protein in culture supernatants,"2.5% paraformaldehyde 60 min, treated HIV diluted 1:80,000, 7 days post-inoculation",<7.8 pg/mL
same,HIV p24 protein in culture supernatants,"2.5% paraformaldehyde 60 min, treated HIV diluted 1:80,000, 10 days post-inoculation",<7.8 pg/mL
same,HIV p24 protein in culture supernatants,"2.5% paraformaldehyde 60 min, treated HIV diluted 1:80,000, 14 days post-inoculation",<7.8 pg/mL
same,HIV p24 protein in culture supernatants,"2.5% paraformaldehyde 60 min, treated HIV diluted 1:800,000, 3 days post-inoculation",<7.8 pg/mL
same,HIV p24 protein in culture supernatants,"2.5% paraformaldehyde 60 min, treated HIV diluted 1:800,000, 7 days post-inoculation",<7.8 pg/mL
same,HIV p24 protein in culture supernatants,"2.5% paraformaldehyde 60 min, treated HIV diluted 1:800,000, 10 days post-inoculation",<7.8 pg/mL
same,HIV p24 protein in culture supernatants,"2.5% paraformaldehyde 60 min, treated HIV diluted 1:800,000, 14 days post-inoculation",<7.8 pg/mL
same,HIV p24 protein in culture supernatants,"5.0% paraformaldehyde 60 min, treated HIV diluted 1:8,000, 3 days post-inoculation",<7.8 pg/mL
same,HIV p24 protein in culture supernatants,"5.0% paraformaldehyde 60 min, treated HIV diluted 1:8,000, 7 days post-inoculation",<7.8 pg/mL
same,HIV p24 protein in culture supernatants,"5.0% paraformaldehyde 60 min, treated HIV diluted 1:8,000, 10 days post-inoculation",<7.8 pg/mL
same,HIV p24 protein in culture supernatants,"5.0% paraformaldehyde 60 min, treated HIV diluted 1:8,000, 14 days post-inoculation",<7.8 pg/mL
same,HIV p24 protein in culture supernatants,"5.0% paraformaldehyde 60 min, treated HIV diluted 1:80,000, 3 days post-inoculation",<7.8 pg/mL
same,HIV p24 protein in culture supernatants,"5.0% paraformaldehyde 60 min, treated HIV diluted 1:80,000, 7 days post-inoculation",<7.8 pg/mL
same,HIV p24 protein in culture supernatants,"5.0% paraformaldehyde 60 min, treated HIV diluted 1:80,000, 10 days post-inoculation",<7.8 pg/mL
same,HIV p24 protein in culture supernatants,"5.0% paraformaldehyde 60 min, treated HIV diluted 1:80,000, 14 days post-inoculation",<7.8 pg/mL
same,HIV p24 protein in culture supernatants,"5.0% paraformaldehyde 60 min, treated HIV diluted 1:800,000, 3 days post-inoculation",<7.8 pg/mL
same,HIV p24 protein in culture supernatants,"5.0% paraformaldehyde 60 min, treated HIV diluted 1:800,000, 7 days post-inoculation",<7.8 pg/mL
same,HIV p24 protein in culture supernatants,"5.0% paraformaldehyde 60 min, treated HIV diluted 1:800,000, 10 days post-inoculation",<7.8 pg/mL
same,HIV p24 protein in culture supernatants,"5.0% paraformaldehyde 60 min, treated HIV diluted 1:800,000, 14 days post-inoculation",<7.8 pg/mL
same,HIV p24 protein in culture supernatants,"exposure time 15 minutes, treated HIV diluted 1:8,000, 3 days post-inoculation",>125 pg/mL
same,HIV p24 protein in culture supernatants,"exposure time 15 minutes, treated HIV diluted 1:8,000, 7 days post-inoculation",>125 pg/mL

# Reference: US9120849B2 (priority 2000, dated 2015)
